Measurements taken from patent US4347319A, “Microbiological epoxidation process” (priority 1980, dated 1982).
Where two headings read alike, the source gives them in different places.

Key:
[1] = tested on: Methylobacter vinelandii (CRL M5Y) NRRL B-11,218; assay: Oxidation by washed cell suspensions of methane-grown cells; format: cell-based; settings: for Oxidative Conversion Rates: methane-grown washed cells, 30° C., methane to methanol, alkene to 1,2-epoxide
Summary of the method: (§1)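 Washed resting cells from methane-grown cultures oxidise the test substrate, supplied as a 1:1 mix with O2 or as 10 μl liquid, at 30 °C in pH 7.0 phosphate buffer; product formation is followed by GC.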

[2] = tested on: Methylomonas methanica (CRL M4P) NRRL B-11,205; assay: as above; format: cell-based
Summary of the method: as §1

[3] = tested on: Methylomonas rosaceus (CRL M10P) NRRL B-11,212; format: cell-based
Protocol: The pH of the nutrient medium was adjusted to 7.0 by the addition of acid or base and 50 ml samples of the nutrient medium were charged into a plurality of 300 ml shaker flasks. The shaker flasks were inoculated with an inoculating loop of cells from an agar plate containing homogeneous colonies of the microorganisms on the plate (the purity of the isolates was confirmed by microscopic examination. The isolates had been maintained on agar plates under an atmosphere of methane and air having a 1:1 v/v gas ratio which had been transferred evey two weeks. The gaseous phase of the inoculated flasks was then replaced with a gas mixture comprised of methane and air having a ratio of 1:1 on a v/v basis. The inoculated flasks were sealed air tight and were incubated on a rotary shaker of orbital radius 2.5 cm at 250 rpm and at 30° C. for two days until turbidity in the medium had developed.
The cells were harvested by centrifugation at 10,000×g. at 4° C. for 30 minutes. The cell pellet was washed twice with a 0.15 M phosphate buffer at a pH of 7.0 (containing 0.002 M MgCl2). The washed cells were then suspended in a 0.15 M phosphate buffer at pH 7.0.
A 0.5 ml sample of each washed cell suspension (2 mg cells) was put into 10 ml vials at 4° C. which were sealed with a rubber cap. The gaseous phase of the vials was removed with vacuum and then was replaced with a gas mixture of the oxidative substrate (e.g., methane) and oxygen at a 1:1 v/v ratio. The vials were then incubated at 30 ° C. on a rotary shaker at 300 rpm. Samples of product (3 μl) were withdrawn periodically with a microsyringe and the products were analyzed by gas chromatography (ionization flame detector column).
The newly discovered and isolated microorganism strains of the present invention were each grown aerobically in the presence of methane in the manner described above. The methane-grown microbial cells were then washed, recovered and put to use in oxidizing an oxidative substrate by the procedure described above except in the case of a liquid substrate 10 μl of the substrate were used.

[4] = tested on: Methylomonas agile (CRL 22 PM9) NRRL B-11,209; assay: Oxidation by washed cell suspensions of methane-grown cells; format: cell-based
Summary of the method: as §1

[5] = tested on: Methylobacter bovis (CRL 19 PM5) NRRL B-11,217; assay: as above; format: cell-based
Summary of the method: as §1

[6] = tested on: Methylobacter chroococcum (CRL 23 PM8) NRRL B-11,215; assay: as above; format: cell-based
Summary of the method: as §1

[7] = tested on: Methylococcus minimus (CRL 24 PM12) NRRL B-11,220; assay: as above; format: cell-based
Summary of the method: as §1

[8] = tested on: Methylosinus sporium (CRL 16 PM2) NRRL B-11,203; assay: as above; format: cell-based
Summary of the method: as §1

[9] = tested on: Methylomonas streptobacterium (CRL 17 PM3) NRRL B-11,208; assay: as above; format: cell-based
Summary of the method: as §1

[10] = tested on: Methylococcus capsulatus (CRL 25 PM13) NRRL B-11,221; assay: as above; format: cell-based
Summary of the method: as §1

[11] = tested on: Methylomonas albus (CRL M8Y) NRRL B-11,207; assay: as above; format: cell-based
Summary of the method: as §1

[12] = tested on: P(40) particulate fraction of Methylosinus sp. (CRL-15, NRRL B-11,202); assay: Substrate competition: effect of methane on propylene epoxidation; format: biochemical; settings: 30° C.
Protocol: The oxidation of methane and propylene by particulate [(P)40 and (P)80] fractions and soluble [S(80)] fraction was measured at 30° C. by estimating the production of methanol and propylene oxide, respectively. The reaction mixtures contained in […]: 150 mM potassium phosphate buffer, pH 7.0 containing 5 mM MgCl2 b, 0.6 ml; 10μ moles NADH, and cellular fraction.
Reaction mixtures were contained in 10 ml vials at 4° C. Vials were sealed with rubber caps. The gaseous phase in the vials was removed using vacuum and then was replaced with a gas mixture of methane or propylene and oxygen at a 1:1, v/v ratio. Oxidation of other gaseous n-alkanes and n-alkanes was examined as described above. For liquid substrates, 10 μl of substrate was used directly.
The hydroxylation of methane and the epoxidation of propylene by particulate fractions of methane-utilizing bacteria required oxygen and NADH. The question of whether the same or a similar enzyme was involved in the oxidation of both substrates was examined by substrate competition experiments. The experiment consisted of determining the effect of methane on the oxidation of propylene to propylene oxide by the P(40) particulate fraction of Methylosinus sp. (CRL-15, NRRL B-11,202).

[13] = tested on: cell fractions of Methylomonas sp. (CRL-17, NRRL B-11,208); assay: Oxidation by cell fractions P(40), P(80), S(80); format: biochemical; settings: propylene to propylene oxide, methane to methanol, 30° C.
Summary of the method: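 Cells washed and French-press disrupted in 25 mM K phosphate pH 7.0 with 5 mM MgCl2; particulate P(40), P(80) and soluble S(80) fractions from 40,000×g and 80,000×g spins. Methane or propylene (1:1 with O2) oxidised at 30° C with NADH; methanol/propylene oxide by GC; activity as μmoles product/h/mg protein.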

[14] = tested on: Methylomonas rubrum (CRL 20 PM6) NRRL B-11,211; assay: Oxidation by washed cell suspensions of methane-grown cells; format: cell-based; settings: for Oxidative Conversion Rates: methane-grown washed cells, 30° C., methane to methanol, alkene to 1,2-epoxide
Summary of the method: as §1

[15] = methane-grown cells, 2-butanol to 2-butanone
[16] = methane-grown washed cells, 30° C., methane to methanol, alkene to 1,2-epoxide

SMILES	Oxidative Conversion Rates [4, 16]	Oxidative Conversion Rates [5, 16]	Oxidative Conversion Rates [6, 16]	Oxidative Conversion Rates [7, 16]	Oxidative Conversion Rates [8, 16]	Oxidative Conversion Rates [9, 16]	Oxidative Conversion Rates [10, 16]	Oxidative Conversion Rates [2, 16]	Oxidative Conversion Rates [11, 16]	Oxidative Conversion Rates [3]	Propylene Oxide Produced [12]	Oxidizing Activity (rate of oxidation) in cell fraction ([13]; P(40))	Oxidizing Activity (rate of oxidation) in cell fraction ([13]; P(80))	Oxidizing Activity (rate of oxidation) in cell fraction ([13]; S(80))	Oxidative Conversion Rates [1]	Oxidative Conversion Rates [14]	further results
CCC(C)O (stereo not shown) [2-Butanol]	–	–	–	–	–	–	–	–	–	–	–	–	–	–	–	–	Conversion Rate to Ketone, 2 hrs. [1, 15]: 2 μmole/2 mg protein; Conversion Rate to Ketone, 20 hrs. [1, 15]: 18 μmole/2 mg protein; Conversion Rate to Ketone, 2 hrs. [2]: 0.06 μmole/2 mg protein; Conversion Rate to Ketone, 20 hrs. [2]: 2 μmole/2 mg protein
C=CC=C [Butadiene]	2.0 μmole/hr/mg protein	2.3 μmole/hr/mg protein	1.8 μmole/hr/mg protein	3.0 μmole/hr/mg protein	2.5 μmole/hr/mg protein	2.6 μmole/hr/mg protein	2.5 μmole/hr/mg protein	1.0 μmole/hr/mg protein	3.0 μmole/hr/mg protein	–	–	–	–	–	–	–	Oxidative Conversion Rates [3, 16]: 9.2 μmole/hr/mg protein
CCCC [Butane]	–	–	–	–	–	–	–	–	–	–	–	–	–	–	–	–	Conversion Rate [9]: 1.2 μmoles/hr/^5 mg. protein
C [Methane]	–	–	–	–	–	–	–	–	–	7.3	0 μmoles/hr./mg. protein	2.9 μ moles of products formed per	2.7 μ moles of products formed per	0 μ moles of products formed per	0.9 μmole/hr/mg protein	0.42 μmole/hr/mg protein	Oxidative Conversion Rates [4]: 0.6; Oxidative Conversion Rates [5]: 2.0; Oxidative Conversion Rates [6]: 0.72; Oxidative Conversion Rates [7]: 2.3; Oxidative Conversion Rates [8]: 1.0; Oxidative Conversion Rates [9]: 1.1; Oxidative Conversion Rates [10]: 2.1; Oxidative Conversion Rates [2]: 2.3; Oxidative Conversion Rates [11]: 1.5
CCC [Propane]	–	–	–	–	–	–	–	–	–	–	–	–	–	–	–	–	Conversion Rate to Ketone ([14]; methane-grown cells, propane to acetone): 3.5 μmoles/hr/mg Protein; Conversion Rate ([9]; growth substrate Methane, n-alkane to secondary alcohol): 1.6 μmoles/hr/^5 mg. protein
C=CC [Propylene]	1.6 μmole/hr/mg protein	2.2 μmole/hr/mg protein	2.5 μmole/hr/mg protein	1.8 μmole/hr/mg protein	3.2 μmole/hr/mg protein	1.0 μmole/hr/mg protein	1.2 μmole/hr/mg protein	3.8 μmole/hr/mg protein	2.5 μmole/hr/mg protein	1.41	4.3 μmoles/hr./mg. protein	2.2 μ moles of products formed per	2.0 μ moles of products formed per	0 μ moles of products formed per	1.9 μmole/hr/mg protein	1.9 μmole/hr/mg protein	–
